Measurements: PubChem BioAssay AID248 (DTP/NCI, 2004)
Where “and” joins values, the source holds several entries; their conditions need not be identical. Identical values can stand only once. Toxic doses and inconclusive results are not listed.

System: L1210 leukemia ip in BDF1 mice, survival T/C
Experiment: NCI In Vivo Anticancer Drug Screen. Data for tumor model L1210 Leukemia (intraperitoneal) in B6D2F1 (BDF1) mice
Conditions: endpoint: mean survival time, higher = longer survival
Procedure, shortened: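 Transplantable tumor model; survival measured in treated vs vehicle control mice. Value = treated/control.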

[1] = dose: 100.0 mg/kg/injection, schedule: Q04DX003 (ip), vehicle: saline
[2] = dose: 200.0 mg/kg/injection, schedule: Q04DX003 (ip), vehicle: saline

CSCCNC(=O)C(=O)NCCSC was tested, and the T/C (dose: 100.0 mg/kg/injection, schedule: Q04DX002 (ip), vehicle: other) was 95 % of control, the T/C (dose: 200.0 mg/kg/injection, schedule: Q04DX002 (ip), vehicle: other) was 88 % of control and the T/C (dose: 400.0 mg/kg/injection, schedule: Q04DX002 (ip), vehicle: other) was 98 % of control.

C[N+](C)(CCNCc1ccccc1)Cc1ccccc1 was tested, and the T/C (dose: 100.0 mg/kg/injection, schedule: Q01DX001 (ip), vehicle: saline) was 102 % of control, the T/C (dose: 200.0 mg/kg/injection, schedule: Q01DX001 (ip), vehicle: saline) was 100 % of control and the T/C (dose: 400.0 mg/kg/injection, schedule: Q01DX001 (ip), vehicle: saline) was 100 % of control.

With c1ccc2c3c(sc2c1)CNCC3 the T/C (dose: 25.0 mg/kg/injection, schedule: Q01DX009 (ip), vehicle: Klucel (hydroxypropylcellulose) (HPC)) was 107 % of control and the T/C (dose: 50.0 mg/kg/injection, schedule: Q01DX009 (ip), vehicle: Klucel (hydroxypropylcellulose) (HPC)) was 101 % of control.

In the case of O=S(=O)(O)c1ccccc1.O=S(=O)(O)c1ccccc1.[NH-]C1CCCCC1[NH-].[Pt+2], the T/C (dose: 0.5 mg/kg/injection, schedule: Q04DX003 (ip), vehicle: dextrose) is reported as 112 % of control, the T/C (dose: 2.0 mg/kg/injection, schedule: Q04DX003 (ip), vehicle: dextrose) is reported as 154 % of control and the T/C (dose: 4.0 mg/kg/injection, schedule: Q04DX003 (ip), vehicle: dextrose) is reported as 173 % of control. For the same compound, the T/C (dose: 6.0 mg/kg/injection, schedule: Q04DX003 (ip), vehicle: dextrose) was 182 % of control.

O=[N+]([O-])c1cccc(Cl)c1Oc1cc(Cl)c(Cl)cc1Cl was tested, and the T/C (dose: 1.25 mg/kg/injection, schedule: Q01DX001 (ip), vehicle: saline) was 105 % of control, the T/C (dose: 2.5 mg/kg/injection, schedule: Q01DX001 (ip), vehicle: saline) was 105 % of control and the T/C (dose: 5.0 mg/kg/injection, schedule: Q01DX001 (ip), vehicle: saline) was 102 % of control. For the same compound, the T/C (dose: 10.0 mg/kg/injection, schedule: Q01DX001 (ip), vehicle: saline) was 96 % of control.

For N#Cc1cn[nH]c1N, the T/C (dose: 100.0 mg/kg/injection, schedule: Q01DX001 (ip), vehicle: saline with Tween-80) was 98 % of control, the T/C (dose: 200.0 mg/kg/injection, schedule: Q01DX001 (ip), vehicle: saline with Tween-80) was 95 % of control and the T/C (dose: 400.0 mg/kg/injection, schedule: Q01DX001 (ip), vehicle: saline with Tween-80) was 103 % of control.

With Clc1cc(CBr)c(CBr)cc1Cl the T/C (dose: 12.5 mg/kg/injection, schedule: Q04DX003 (ip), vehicle: saline with Tween-80) was 94 % of control, the T/C (dose: 25.0 mg/kg/injection, schedule: Q04DX003 (ip), vehicle: saline with Tween-80) was 97 % of control and the T/C (dose: 50.0 mg/kg/injection, schedule: Q04DX003 (ip), vehicle: saline with Tween-80) was 91 % of control.

In the case of O=S1(=O)CCCCN1, the T/C (dose: 44.0 mg/kg/injection, schedule: Q01DX009 (ip), vehicle: saline) is reported as 101 % of control, the T/C (dose: 87.5 mg/kg/injection, schedule: Q01DX009 (ip), vehicle: saline) is reported as 102 % of control and the T/C (dose: 175.0 mg/kg/injection, schedule: Q01DX009 (ip), vehicle: saline) is reported as 98 % of control. For the same compound, the T/C (dose: 350.0 mg/kg/injection, schedule: Q01DX009 (ip), vehicle: saline) was 90 % of control.

With O=NN(CCCl)C(=O)Nc1ccccc1NC(=O)N(CCCl)N=O the T/C (dose: 4.0 mg/kg/injection, schedule: Q01DX001 (ip), vehicle: carboxymethylcellulose (CMC)) was 122 % of control.

COc1ccc(C=[N+](C)CCc2ccc(OC)c(OC)c2)cc1OC was tested, and the T/C (dose: 25.0 mg/kg/injection, schedule: Q01DX009 (ip), vehicle: saline) was 96 % of control, the T/C (dose: 50.0 mg/kg/injection, schedule: Q01DX009 (ip), vehicle: saline) was 101 % of control and the T/C (dose: 100.0 mg/kg/injection, schedule: Q01DX009 (ip), vehicle: saline) was 93 % of control and 116 % of control. The T/C [1] was 100 % of control, the T/C (dose: 200.0 mg/kg/injection, schedule: Q01DX009 (ip), vehicle: saline) was 98 % of control and 91 % of control and the T/C [2] was 97 % of control.

For COc1ccc(C[Si](C)C)cc1, the T/C [1] was 93 % of control, the T/C [2] was 98 % of control and the T/C (dose: 400.0 mg/kg/injection, schedule: Q04DX003 (ip), vehicle: saline) was 94 % of control.

With Nc1cc2c3c(cccc3c1Br)C(=O)N(Cc1ccccc1)C2=O the T/C (dose: 400.0 mg/kg/injection, schedule: Q04DX003 (ip), vehicle: Klucel (hydroxypropylcellulose) (HPC)) was 88 % of control.

With CC(=O)Nc1ccn(C2OC(COC(C)=O)C(OC3OC(COC(C)=O)C(OC(C)=O)C(OC(C)=O)C3OC(C)=O)C(OC(C)=O)C2OC(C)=O)c(=O)n1 (stereo unspecified) the T/C (dose: 22.5 mg/kg/injection, schedule: Q01DX001 (ip), vehicle: carboxymethylcellulose (CMC)) was 103 % of control, the T/C (dose: 45.0 mg/kg/injection, schedule: Q01DX001 (ip), vehicle: carboxymethylcellulose (CMC)) was 100 % of control and the T/C (dose: 90.0 mg/kg/injection, schedule: Q01DX001 (ip), vehicle: carboxymethylcellulose (CMC)) was 100 % of control. The T/C (dose: 180.0 mg/kg/injection, schedule: Q01DX001 (ip), vehicle: carboxymethylcellulose (CMC)) was 100 % of control.
